System: proinflammatory gene products in psoriasis lesional skin
Assay: mRNA abundance of inflammatory molecules in skin biopsies by real-time RT-PCR, normalized to hARP
Type: in vivo, human
Procedure: mRNA abundance for a variety of inflammatory molecules was measured by real-time RT-PCR and expression was normalized to the house-keeping gene HARP (human acidic ribosomal protein). Inflammatory markers assessed by mRNA levels included the chemokine CXCL9, beta-defensin (DEFB4), interferon-gamma, IL-10, IL-17a, IL-22, IL-8, keratin 16, MX-1, IL-12/23 p40, IL-23 p19, iNOS and TNF. These are inflammatory molecules produced by activated DC populations, Th1, Th17, Th22 T-cells and response genes to interferon (MX-1. CXCL9) or IL-17 (defensin). Keratin 16 was also measured by mRNA levels to assess the epidermal response by an alternate means.
The pharmacodynamic effects of (S)—N-(2-(1-(3-ethoxy-4-methoxyphenyl)-2-(methylsulfonyl)ethyl)-1,3-dioxoisoindolin-4-yl)acetamide were studied in skin biopsies from subjects treated with the compound in a phase 2, multi-center, open-label study evaluating the safety, tolerability, and efficacy of the compound in recalcitrant psoriasis vulgaris. Skin biopsies were taken from uninvolved and involved skin at baseline, and from involved skin after treatment with (S)—N-(2-(1-(3-ethoxy-4-methoxyphenyl)-2-(methylsulfonyl)ethyl)-1,3-dioxoisoindolin-4-yl)acetamide 20 mg BID after 4 and 12 weeks.
The expression of proinflammatory gene products known to be involved in the pathogenesis of psoriasis was measured by real-time polymerase chain reaction (RT-PCR). With regard to gene expression, there were reductions in iNOS and IL-12/IL-23 p40 mRNAs along with reductions in IL-17A and IL-22 mRNAs, indicating inhibition of the Th1, Th17, and Th22 pathways (FIG. 5). […] Normalized IL-17A mRNA levels were reduced by 49% at week 12 and normalized IL-22 mRNA levels were reduced by 100% at week 12. DEFB4, a defensin induced in keratinocytes by IL-17, was reduced by 55% in week 4 biopsies and by 82% in week 12 biopsies. IL-8, which is induced in keratinocytes by IL-17, was reduced by 76% in week 4 biopsies and by 66% in week 12 biopsies.

[1] = Week 4, 20 mg BID, subjects also with PASI values, No. 17
[2] = Week 4, 20 mg BID, subjects also with PASI values, No. 18
[3] = Week 12, 20 mg BID, subjects also with PASI values, No. 10
[4] = Week 12, 20 mg BID, subjects also with PASI values, No. 11
[5] = Week 12, 20 mg BID, subjects also with PASI values, No. 14

In the case of `CCOc1cc([C@@H](CS(C)(=O)=O)N2C(=O)c3cccc(NC(C)=O)c3C2=O)ccc1OC` [(S)—N-(2-(1-(3-ethoxy-4-methoxyphenyl)-2-(methylsulfonyl)ethyl)-1,3-dioxoisoindolin-4-yl)acetamide], the “CXCL9/hARP: Gene Expression Median Change (%)” value [1] is reported as −30.7%, the “MX1/hARP: Gene Expression Median Change (%)” value [1] is reported as −51.1% and the “TNFα/hARP: Gene Expression Median Change (%)” value [1] is reported as −13.0%. The “IL-8/hARP: Gene Expression Median Change (%)” value [2] was −76.4%, the “IL-10/hARP: Gene Expression Median Change (%)” value [2] was −49.1% and the “K16/hARP: Gene Expression Median Change (%)” value [2] was −62.0%. For the same compound, the “p19/hARP: Gene Expression Median Change (%)” value [2] was −53.4%, the “CXCL9 (MIG) mRNA: Median % change from baseline (normalized to hARP)” value (Week 4, 20 mg b.i.d.) was −30.7% and the “DEFB4 mRNA: Median % change from baseline (normalized to hARP)” value (Week 4, 20 mg b.i.d.) was −55.4%. The “IFN-g mRNA: Median % change from baseline (normalized to hARP)” value (Week 4, 20 mg b.i.d.) was −38.2%, the “IL-8 mRNA: Median % change from baseline (normalized to hARP)” value (Week 4, 20 mg b.i.d.) was −76.4% and the “IL-10 mRNA: Median % change from baseline (normalized to hARP)” value (Week 4, 20 mg b.i.d.) was −49.1%. For the same compound, the “IL-12/IL-23 p40 mRNA: Median % change from baseline (normalized to hARP)” value (Week 4, 20 mg b.i.d.) was −100%, the “IL-17A mRNA: Median % change from baseline (normalized to hARP)” value (Week 4, 20 mg b.i.d.) was −72.5% and the “IL-22 mRNA: Median % change from baseline (normalized to hARP)” value (Week 4, 20 mg b.i.d.) was −74.4%. For the same compound, the “IL-23p19 mRNA: Median % change from baseline (normalized to hARP)” value (Week 4, 20 mg b.i.d.) was −53.4%, the “K-16 mRNA: Median % change from baseline (normalized to hARP)” value (Week 4, 20 mg b.i.d.) was −62.0% and the “MX-1 mRNA: Median % change from baseline (normalized to hARP)” value (Week 4, 20 mg b.i.d.) was −51.1%. For the same compound, the “iNOS mRNA: Median % change from baseline (normalized to hARP)” value (Week 4, 20 mg b.i.d.) was −61.0%, the “median reduction in normalized MX-1 mRNA” value (Week 4, 20 mg b.i.d.) was 51% and the “reduction of normalized iNOS mRNA expression” value (Week 4, 20 mg b.i.d.) was 61%. For the same compound, the “IL-22/hARP: Gene Expression Median Change (%)” value (Week 12, 20 mg BID, subjects also with PASI values, No. 6) was −100%, the “p40/hARP: Gene Expression Median Change (%)” value (Week 12, 20 mg BID, subjects also with PASI values, No. 7) was −51.5% and the “DEFB4/hARP: Gene Expression Median Change (%)” value [3] was −82.0%. The “IL-2/hARP: Gene Expression Median Change (%)” value [3] was −25.0%, the “IL-17A/hARP: Gene Expression Median Change (%)” value [3] was −46.7% and the “CD83/hARP: Gene Expression Median Change (%)” value [4] was 27.39%. For the same compound, the “CXCL9/hARP: Gene Expression Median Change (%)” value [4] was −15.8%, the “MX1/hARP: Gene Expression Median Change (%)” value [4] was −51.5% and the “iNOS/hARP: Gene Expression Median Change (%)” value [4] was −100%. The “IFNγ/hARP: Gene Expression Median Change (%)” value (Week 12, 20 mg BID, subjects also with PASI values, No. 12) was −15.3%, the “TNFα/hARP: Gene Expression Median Change (%)” value (Week 12, 20 mg BID, subjects also with PASI values, No. 13) was −41.3% and the “IL-8/hARP: Gene Expression Median Change (%)” value [5] was −79.2%. For the same compound, the “IL-10/hARP: Gene Expression Median Change (%)” value [5] was −15.3%, the “K16/hARP: Gene Expression Median Change (%)” value [5] was −82.5% and the “p19/hARP: Gene Expression Median Change (%)” value [5] was −67.9%. For the same compound, the “CXCL9 (MIG) mRNA: Median % change from baseline (normalized to hARP)” value (Week 12, 20 mg b.i.d.) was −36.4%, the “DEFB4 mRNA: Median % change from baseline (normalized to hARP)” value (Week 12, 20 mg b.i.d.) was −82.3% and the “IFN-g mRNA: Median % change from baseline (normalized to hARP)” value (Week 12, 20 mg b.i.d.) was −37.6%. The “IL-8 mRNA: Median % change from baseline (normalized to hARP)” value (Week 12, 20 mg b.i.d.) was −66.5%, the “IL-10 mRNA: Median % change from baseline (normalized to hARP)” value (Week 12, 20 mg b.i.d.) was −26.5% and the “IL-12/IL-23 p40 mRNA: Median % change from baseline (normalized to hARP)” value (Week 12, 20 mg b.i.d.) was −86.7%. The “IL-17A mRNA: Median % change from baseline (normalized to hARP)” value (Week 12, 20 mg b.i.d.) was −49.4%, the “IL-22 mRNA: Median % change from baseline (normalized to hARP)” value (Week 12, 20 mg b.i.d.) was −100% and the “IL-23p19 mRNA: Median % change from baseline (normalized to hARP)” value (Week 12, 20 mg b.i.d.) was −68.3%. The “K-16 mRNA: Median % change from baseline (normalized to hARP)” value (Week 12, 20 mg b.i.d.) was −78.6%, the “MX-1 mRNA: Median % change from baseline (normalized to hARP)” value (Week 12, 20 mg b.i.d.) was −52.6% and the “iNOS mRNA: Median % change from baseline (normalized to hARP)” value (Week 12, 20 mg b.i.d.) was −100%. The “median reduction in K16 mRNA” value (Week 12, 20 mg b.i.d.) was 78%, the “reduction in normalized MX-1 mRNA” value (Week 12, 20 mg b.i.d.) was 52% and the “reduction of normalized IL-17A mRNA levels” value (Week 12, 20 mg b.i.d.) was 49%. For the same compound, the “reduction of normalized IL-22 mRNA levels” value (Week 12, 20 mg b.i.d.) was 100%, the “reduction of normalized iNOS mRNA expression” value (Week 12, 20 mg b.i.d.) was 100% and the “reduction in IFN-γ gene expression in the skin” value (week 4, the three subjects who attained a PASI-75 or better at week 12) was 100%. For the same compound, the “IL-12/23 p40 mRNA levels” value (week 4 and week 12 biopsies, 20 mg b.i.d.) was “significant reductions”, the “reduction of normalized expression of IL-8” value (week 4 biopsies, 20 mg b.i.d.) was 76% and the “inhibition of gene expression, responders vs non-responders” value (week 12, 20 mg BID) was “greater among responders”. For the same compound, the “reduction of normalized expression of IL-8” value (week 12 biopsies, 20 mg b.i.d.) was 66%.

From US20110318741A1, “BIOMARKERS FOR THE TREATMENT OF PSORIASIS” (priority 2010, published 2011)
